Among the data in paper PMC10590383, “Repurposing conformational changes in ANL superfamily enzymes to rapidly generate biosensors for organic and amino acids” (Nature Communications, 2023) are EC50 values, retold here.

Holding throughout (format): biochemical
One test concerns the target T1, GECFINDER-Phe2 (Aneurinibacillus migulanus, UniProt P0C061).
T1 construct: gene grsA; GrsA-PheA-PCP; cpEGFP inserted in hinge B, linkers CV-LL
Nature of the test: Fluorescence dose-response of purified cpEGFP sensors (0.75 uM) in 100 mM Tris-HCl pH 7.5, room temperature, 1 mM ATP, 2.5 mM MgCl2; excitation 400, 460 or 480 nm by sensor, emission 510 nm; logistic five-parameter fit. The conditions noted are these: n = 3. The procedure:
Fig. 3 Dose–response curves and fluorescence spectrums of […]s. a, c, e, g, i, k Dose–response curve of purified […]s with increasing concentrations of ligand in 100 mM Tris-HCl buffer (pH=7.5). The normalized ΔF/F0 value increased after ligand binding. All data shown are mean ± S.D. (n = 3 biologically independent samples). b, d, f, h, j, l The fluorescence spectra of […]s changed as the ligand concentration increased. All data shown are mean ± S.D. (n = 3 biologically independent samples). Source data are provided as a Source data file.
The study conducted dose–response curve, substrate specificity, and fluorescent spectrum analyses in 100-mM Tris buffer (pH = 7.5), while pH stability experiments were performed in 100-mM Tris buffer at three different pH values (6.5, 7.5, and 8.5) at room temperature. […] protein at a concentration of 0.75 μM, various small molecule concentrations, 1 mM ATP, and 2.5 mM MgCl2 were used in the experiments. Fluorescent signals were detected using a Microplate Reader (Synergy H4, Bio Tek) at an excitation/emission wavelength of 460 nm/510 nm or 480 nm/510 nm. The dose-response curve was determined immediately after the addition of the analyte. The total duration of the measurement was 15 min, with readings taken at one-minute intervals. The dose-response curve was plotted using the fluorescence values obtained after achieving stability in the fluorescence signal. The dose-response curves were fitted using the logistic model LOGISTIC5 available in Origin 2021, which could provide a more adequate fit to asymmetric dose-response data[62],[63]. Excitation spectra were scanned from 300 to 540 nm with a step size of 5 nm, and the emission wavelength was set to 560 nm. Emission spectra were scanned from 470 to 700 nm with a step size of 5 nm, and the excitation wavelength was set to 450 nm. The thermal stability of […] was analyzed using the UNcle multifunctional protein stability analysis system. Measurements were performed in 20 mM MOPS buffer with 2 mM DTT at a sample concentration of 1 mg/mL. Absolute fluorescence quantum yields were measured using an absolute photoluminescence quantum yield spectrometer (FS5, Edinburgh).

The next test deals with T2, GECFINDER-Phe3.2 (Aneurinibacillus migulanus, UniProt P0C061, A301E/F234I).
T2 construct: gene grsA
Briefly: Fluorescence dose-response of purified affinity-lowered […]-Phe3 mutants with phenylalanine, 100 mM Tris pH 7.5, room temperature, 1 mM ATP, 2.5 mM MgCl2. The source says: (§1) Generally, industrial amino acid-producing strains produce phenylalanine at the grams per liter level, which greatly exceeds the dynamic range of […]-Phe3. Thus, we had to re-engineer the affinity of […]-Phe3 without affecting its ligand specificity, for phenylalanine to enable the screening of industrial phenylalanine-producing strains First, we performed virtual alanine scanning on the amino acid residues near the substrate pocket of […]-Phe3 using Discovery Studio 2019. […] Subsequently, we performed virtual saturation mutations on the F234 site (Supplementary Fig. 8b) and selected F234I, which has a medium mutation energy value ranking, for experimental verification. […] To further reduce the affinity of the F234I mutant ([…]-Phe3.1) for phenylalanine, a site-saturation library of A301 based on […]-Phe3.1 was created and screened. […] The substrate specificity and thermal stability of […]-Phe3.2 were evaluated.
(§2) Fig. 5 […] applies for FADS sorting. a Dose–response curves of purified […]-Phe3, 3.1 and 3.2 with increasing concentrations of phenylalanine. b Phenylalanine biosynthesis pathway in C. glutamicum. Dotted and dashed lines represented feedback inhibition and repression, respectively. Two target genes were highlighted in red. […] RBS strength was determined using a GFP reporter system. Scale bar represented GFP fluorescence normalized with OD600 nm. […]

The next test has as its target T3, GECFINDER-Phe3.1 (Aneurinibacillus migulanus, UniProt P0C061, F234I).
T3 construct: gene grsA
The description is as above.
Text: as §1, §2

T3 sequence (P0C061 1-617 F234I): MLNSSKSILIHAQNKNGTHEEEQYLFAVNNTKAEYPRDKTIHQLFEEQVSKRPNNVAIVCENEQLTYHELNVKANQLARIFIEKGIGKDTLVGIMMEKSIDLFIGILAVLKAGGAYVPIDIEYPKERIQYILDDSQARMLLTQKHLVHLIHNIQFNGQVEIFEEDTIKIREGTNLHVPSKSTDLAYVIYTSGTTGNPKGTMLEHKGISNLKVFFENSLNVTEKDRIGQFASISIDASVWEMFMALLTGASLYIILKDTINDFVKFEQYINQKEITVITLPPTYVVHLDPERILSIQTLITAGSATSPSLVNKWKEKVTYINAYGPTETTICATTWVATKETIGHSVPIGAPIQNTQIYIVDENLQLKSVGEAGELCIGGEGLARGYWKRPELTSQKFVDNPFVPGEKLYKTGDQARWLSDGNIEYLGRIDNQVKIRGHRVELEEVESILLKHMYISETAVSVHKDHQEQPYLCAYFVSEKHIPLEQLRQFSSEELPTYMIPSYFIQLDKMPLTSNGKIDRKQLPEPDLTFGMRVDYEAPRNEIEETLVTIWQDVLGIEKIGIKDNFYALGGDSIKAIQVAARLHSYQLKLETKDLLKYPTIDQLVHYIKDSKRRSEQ
T1 sequence (P0C061 1-617): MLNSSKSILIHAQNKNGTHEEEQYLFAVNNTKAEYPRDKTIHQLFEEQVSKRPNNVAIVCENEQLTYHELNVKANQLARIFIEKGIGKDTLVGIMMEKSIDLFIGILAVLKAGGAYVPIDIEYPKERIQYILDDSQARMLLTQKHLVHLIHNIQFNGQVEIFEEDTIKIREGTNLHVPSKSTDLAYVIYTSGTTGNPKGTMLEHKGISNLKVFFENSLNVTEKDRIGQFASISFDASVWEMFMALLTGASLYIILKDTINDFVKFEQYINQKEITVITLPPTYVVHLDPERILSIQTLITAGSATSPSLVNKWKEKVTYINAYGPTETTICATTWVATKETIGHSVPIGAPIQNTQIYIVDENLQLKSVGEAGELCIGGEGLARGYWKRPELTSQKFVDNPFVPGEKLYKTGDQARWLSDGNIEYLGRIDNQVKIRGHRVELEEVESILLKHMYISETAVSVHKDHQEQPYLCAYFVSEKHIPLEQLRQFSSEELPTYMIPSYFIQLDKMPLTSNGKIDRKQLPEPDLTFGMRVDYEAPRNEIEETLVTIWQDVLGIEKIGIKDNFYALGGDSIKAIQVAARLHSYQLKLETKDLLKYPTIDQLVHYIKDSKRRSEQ
T2 sequence (P0C061 1-617 F234I/A301E): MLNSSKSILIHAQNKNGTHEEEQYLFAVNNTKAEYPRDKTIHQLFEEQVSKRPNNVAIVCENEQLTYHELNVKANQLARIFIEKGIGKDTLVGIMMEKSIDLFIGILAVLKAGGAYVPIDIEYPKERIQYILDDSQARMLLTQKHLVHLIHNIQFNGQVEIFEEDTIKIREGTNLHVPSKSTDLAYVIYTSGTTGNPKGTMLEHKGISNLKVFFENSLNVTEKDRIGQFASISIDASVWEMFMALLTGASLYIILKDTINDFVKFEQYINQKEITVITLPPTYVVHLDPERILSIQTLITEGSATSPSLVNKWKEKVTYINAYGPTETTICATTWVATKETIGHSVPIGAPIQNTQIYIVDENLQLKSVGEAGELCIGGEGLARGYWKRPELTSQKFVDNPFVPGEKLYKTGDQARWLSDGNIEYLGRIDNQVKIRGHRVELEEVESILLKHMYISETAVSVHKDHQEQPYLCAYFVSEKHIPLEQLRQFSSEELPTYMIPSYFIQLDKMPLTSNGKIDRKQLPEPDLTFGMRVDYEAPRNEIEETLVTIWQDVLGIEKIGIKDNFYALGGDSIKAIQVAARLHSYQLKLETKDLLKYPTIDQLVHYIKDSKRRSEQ

For `N[C@@H](Cc1ccccc1)C(=O)O` [Phe, phenylalanine], the EC50 on GECFINDER-Phe2 was determined as 1.47 ± 0.15 µM; at GECFINDER-Phe3.2, 67.6 µM; on GECFINDER-Phe3.1, 7.51 µM.

By EC50 is commonly meant the concentration giving half of the maximal effect.
